Converted amounts (≈) assume the structure as drawn.
What was measured:
Assay type in all cases: physicochemical
[1] = Bulk stability; settings: 25° C./92.5% RH open, 40° C./75% RH open, 60° C. closed container; 1 week
Method: Form A was placed at 25° C./92.5% RH in an open container, at 40° C./75% RH in an open container, and at 60° C. in a closed container for 1 week. Samples after the stress were characterized by XRPD and HPLC and inspected for color change.

[2] = Solubility, Experiment 1 (target concentration 2 mg/mL); settings: for XRPD of residual solid / Solubility: 37° C.
Method: Experiment 1: 5 mg of Form A and 5 mg of amorphous form were weighed into an 8 mL glass vial, respectively. 2.5 mL of solubility medium was added. Obtained suspensions/solutions were stirred at 37° C. at 400 rpm and sampled at 2 hours and at 24 hours. Obtained suspensions/solutions were filtered through a 0.45 μm PVDF membrane filter by centrifugation at 14,000 rpm and at 37° C. Filtrate were analyzed by HPLC and pH meter for solubility and pH value, respectively. Residual solids (wet cakes) from the 24 hours samples were also characterized by XRPD to determine physical form.

[3] = Solubility, Experiment 2 (target concentration 5 mg/mL)
Method: Experiment 2: 5 mg of Form A and 5 mg of amorphous form were weighed into an 8 mL glass vial, respectively. 1 mL of solubility medium was added. Obtained suspensions/solutions were stirred at 37° C. at 400 rpm and sampled at 2 hours and at 24 hours. Obtained suspensions/solutions were filtered through a 0.45 μm PVDF membrane filter by centrifugation at 14,000 rpm and at 37° C. Filtrate were analyzed by HPLC and pH meter for solubility and pH value, respectively.

[4] = Hygroscopicity by DVS
Method: Water sorption and desorption behavior Form A was investigated by DVS at 25° C. with a cycle of 40-0-95-0-40% RH. XRPD was measured after the DVS test to determine form change. […] The DVS test measured 0.4% water uptake from 40% to 80% RH, see FIG. 4.

[5] = Mechanic properties (compression, dry grinding, wet granulation simulation)
Method: Compression simulation experiments: about 20 mg of Form A was compressed for 5 minutes under 2 MPa, 5 MPa and 10 MPa with a hydraulic press. Potential form change and degree of crystallinity were evaluated by XRPD.
Dry grinding simulation experiments: about 20 mg of Form A was ground manually with a mortar and a pestle for 5 min. Potential form change and degree of crystallinity were evaluated by XRPD.
Wet granulation simulation experiments: water or ethanol was added drop-wisely to about 20 mg of Form A until the sample was wetted sufficiently. Wet sample was ground gently with in a mortar and a pestle for 5 min. Post granulation sample was dried under ambient condition for 10 min. Potential form change and degree of crystallinity were evaluated by XRPD.

Structure (SMILES): O=S1(=O)Nc2c(cc(F)c(F)c2Nc2ccc(I)cc2F)OC[C@H](O)[C@H](O)CC12CC2 [Form A, (5R,6S)-10,11-difluoro-12-((2-fluoro-4-iodophenyl)amino)-5,6-dihydroxy-4,5,6,7-tetrahydro-1H-spiro[benzo[b][1,5,4]oxathiazecine-3,1′-cyclopropane]2,2-dioxide]
- Color change after stress [1]: no change of color was observed
- Physical form after stress (XRPD) [1]: Form A was confirmed
- XRPD of residual solid ([2]; Acetate buffer (50 mM), pH 4.5, 24 h): Form A
- Solubility ([2]; Acetate buffer (50 mM), pH 4.5, 24 h, target concentration 2 mg/mL): 5.1 µg/mL (≈ 8.94 µM)
- solubility at 2 h ([2]; FaSSGF, pH 1.6, 37 °C, pH 1.6, fassgf or other biorelevant, thermodynamic from solid, pH 1.6, 2 h, target concentration 2 mg/mL): 12 µg/mL (≈ 21 µM)
- XRPD of residual solid ([2]; FaSSGF, pH 1.6, 24 h): Form A
- Solubility ([2]; FaSSGF, pH 1.6, 24 h, target concentration 2 mg/mL): 6.3 µg/mL (≈ 11 µM)
- Solubility ([2]; FaSSIF-v1, pH 6.5, 2 h, target concentration 2 mg/mL): 270 µg/mL (≈ 473 µM)
- XRPD of residual solid ([2]; FaSSIF-v1, pH 6.5, 24 h): Form A
- Solubility ([2]; FaSSIF-v1, pH 6.5, 24 h, target concentration 2 mg/mL): 330 µg/mL (≈ 579 µM)
- solubility at 2 h ([2]; FeSSIF-v1, pH 5.0, 37 °C, pH 5, fessif, thermodynamic from solid, FeSSIF-v1, pH 5.0, 2 h, target concentration 2 mg/mL): 1800 µg/mL (≈ 3160 µM)
- solubility at 24 h ([2]; FeSSIF-v1, pH 5.0, 37 °C, pH 5, fessif, thermodynamic from solid, FeSSIF-v1, pH 5.0, 24 h, target concentration 2 mg/mL): ≥ 2000 µg/mL
- solubility at 2 h ([2]; HCl solution, pH 1.2, 37 °C, pH 1.2, simulated gastric fluid, thermodynamic from solid, pH 1.2, 2 h, target concentration 2 mg/mL): 12 µg/mL (≈ 21 µM)
- XRPD of residual solid ([2]; HCl solution, pH 1.2, 24 h): Form A
- Solubility ([2]; HCl solution, pH 1.2, 24 h, target concentration 2 mg/mL): 3.7 µg/mL (≈ 6.49 µM)
- XRPD of residual solid ([2]; Phosphate buffer (50 mM), pH 6.8, 24 h): Form A
- Solubility ([2]; Phosphate buffer (50 mM), pH 6.8, 24 h, target concentration 2 mg/mL): 5.1 µg/mL (≈ 8.94 µM)
- XRPD of residual solid ([2]; Water, 24 h): Form A
- solubility at 2 h ([2]; acetate buffer (50 mM), pH 4.5, 37 °C, pH 4.5, aqueous buffer, thermodynamic from solid, pH 4.5, 2 h, target concentration 2 mg/mL): 12 µg/mL (≈ 21 µM)
- solubility at 2 h ([2]; phosphate buffer (50 mM), pH 6.8, 37 °C, pH 6.8, aqueous buffer, thermodynamic from solid, pH 6.8, 2 h, target concentration 2 mg/mL): 13 µg/mL (≈ 22.8 µM)
- solubility at 2 h ([2]; water, 37 °C, thermodynamic from solid, 2 h, target concentration 2 mg/mL): 19 µg/mL (≈ 33.3 µM)
- solubility at 24 h ([3]; FeSSIF-v1, pH 5.0, 37 °C, pH 5, fessif, thermodynamic from solid, 24 h): 3000 µg/mL (≈ 5260 µM)
- Solubility ([3]; FeSSIF-v1, pH 5.0, 2 h, 37° C.): 2400 µg/mL (≈ 4210 µM)
- Water uptake (DVS) ([4]; 25° C., from 40% to 80% RH): 0.4%
- Hygroscopicity ([4]; DVS at 25° C., cycle 40-0-95-0-40% RH): slightly hygroscopic
- XRPD after the DVS test (form change) ([4]; after DVS cycle 40-0-95-0-40% RH): no form change
- Crystallinity after compression (XRPD) ([5]; compressed 5 minutes under 2 MPa, 5 MPa and 10 MPa): No obvious decrease in crystallinity
- Crystallinity after dry grinding (XRPD) ([5]; ground manually with mortar and pestle for 5 min): Only a slight decrease in crystallinity
- Crystallinity after wet granulation (XRPD) ([5]; water or ethanol, ground 5 min, dried 10 min): Only a slight decrease in crystallinity
